Results as given in the NIST ThermoML archive (doi:10.1016/j.fluid.2008.04.016).
Values joined by “and” are separate entries in the source; they are usually repeats but may differ in a detail not shown here. Equal entries are not always repeated. Numbers after ± are expanded uncertainties.

Settings: Liquid

## CC(C)(C)c1cc(C(C)(C)C)cc(C(C)(C)C)c1 [1,3,5-tri-tert-butylbenzene]
352.15 K, Transpiration method
  vapor or sublimation pressure: 0.1311 ± 0.0066 kPa
354.45 K, Transpiration method
  vapor or sublimation pressure: 0.1544 ± 0.0077 kPa
356.65 K, Transpiration method
  vapor or sublimation pressure: 0.1766 ± 0.0088 kPa
358.95 K, Transpiration method
  vapor or sublimation pressure: 0.2039 ± 0.01 kPa
359.15 K, Transpiration method
  vapor or sublimation pressure: 0.2029 ± 0.01 kPa
361.35 K, Transpiration method
  vapor or sublimation pressure: 0.2292 ± 0.011 kPa
362.05 K, Transpiration method
  vapor or sublimation pressure: 0.2407 ± 0.012 kPa
363.45 K, Transpiration method
  vapor or sublimation pressure: 0.2577 ± 0.013 kPa
365.15 K, Transpiration method
  vapor or sublimation pressure: 0.2888 ± 0.014 kPa
367.45 K, Transpiration method
  vapor or sublimation pressure: 0.3257 ± 0.016 kPa
370.15 K, Transpiration method
  vapor or sublimation pressure: 0.3801 ± 0.019 kPa
372.65 K, Transpiration method
  vapor or sublimation pressure: 0.4354 ± 0.022 kPa
374.95 K, Transpiration method
  vapor or sublimation pressure: 0.4944 ± 0.025 kPa
377.35 K, Transpiration method
  vapor or sublimation pressure: 0.5671 ± 0.028 kPa
379.55 K, Transpiration method
  vapor or sublimation pressure: 0.6317 ± 0.032 kPa
382.65 K, Transpiration method
  vapor or sublimation pressure: 0.7387 ± 0.037 kPa

## CC(C)(C)c1ccc(C(C)(C)C)cc1 [1,4-bis(1,1-dimethylethyl)benzene]
354.15 K, Transpiration method
  vapor or sublimation pressure: 0.3792 ± 0.019 kPa
356.45 K, Transpiration method
  vapor or sublimation pressure: 0.4257 ± 0.021 kPa
358.95 K, Transpiration method
  vapor or sublimation pressure: 0.4877 ± 0.024 kPa
361.75 K, Transpiration method
  vapor or sublimation pressure: 0.5742 ± 0.029 kPa
364.25 K, Transpiration method
  vapor or sublimation pressure: 0.6537 ± 0.033 kPa
366.45 K, Transpiration method
  vapor or sublimation pressure: 0.7231 ± 0.036 kPa
366.55 K, Transpiration method
  vapor or sublimation pressure: 0.7158 ± 0.036 kPa
369.15 K, Transpiration method
  vapor or sublimation pressure: 0.8057 ± 0.04 kPa
372.05 K, Transpiration method
  vapor or sublimation pressure: 0.9399 ± 0.047 kPa
374.15 K, Transpiration method
  vapor or sublimation pressure: 1.036 ± 0.052 kPa
376.45 K, Transpiration method
  vapor or sublimation pressure: 1.171 ± 0.059 kPa
379.75 K, Transpiration method
  vapor or sublimation pressure: 1.376 ± 0.069 kPa
381.75 K, Transpiration method
  vapor or sublimation pressure: 1.507 ± 0.075 kPa
383.25 K, Transpiration method
  vapor or sublimation pressure: 1.647 ± 0.082 kPa

## Cc1cc(C(C)(C)C)cc(C(C)(C)C)c1 [3,5-di-tert-butyltoluene]
308.25 K, Transpiration method
  vapor or sublimation pressure: 0.01666 ± 0.00083 kPa
310.65 K, Transpiration method
  vapor or sublimation pressure: 0.01931 ± 0.00097 kPa
313.35 K, Transpiration method
  vapor or sublimation pressure: 0.02366 ± 0.0012 kPa
315.45 K, Transpiration method
  vapor or sublimation pressure: 0.02884 ± 0.0014 kPa
317.95 K, Transpiration method
  vapor or sublimation pressure: 0.03401 ± 0.0017 kPa
320.45 K, Transpiration method
  vapor or sublimation pressure: 0.04037 ± 0.002 kPa
323.05 K, Transpiration method
  vapor or sublimation pressure: 0.04906 ± 0.0024 kPa
325.55 K, Transpiration method
  vapor or sublimation pressure: 0.05841 ± 0.0029 kPa
327.95 K, Transpiration method
  vapor or sublimation pressure: 0.06909 ± 0.0035 kPa
330.55 K, Transpiration method
  vapor or sublimation pressure: 0.08097 ± 0.004 kPa
333.05 K, Transpiration method
  vapor or sublimation pressure: 0.09656 ± 0.0048 kPa
335.55 K, Transpiration method
  vapor or sublimation pressure: 0.1131 ± 0.0057 kPa
338.15 K, Transpiration method
  vapor or sublimation pressure: 0.1302 ± 0.0065 kPa
340.65 K, Transpiration method
  vapor or sublimation pressure: 0.1549 ± 0.0077 kPa
343.05 K, Transpiration method
  vapor or sublimation pressure: 0.1773 ± 0.0089 kPa
345.55 K, Transpiration method
  vapor or sublimation pressure: 0.2067 ± 0.01 kPa
348.1 K, Transpiration method
  vapor or sublimation pressure: 0.2475 ± 0.012 kPa
350.45 K, Transpiration method
  vapor or sublimation pressure: 0.2845 ± 0.014 kPa
353.05 K, Transpiration method
  vapor or sublimation pressure: 0.3277 ± 0.016 kPa
355.65 K, Transpiration method
  vapor or sublimation pressure: 0.3743 ± 0.019 kPa
358.15 K, Transpiration method
  vapor or sublimation pressure: 0.4358 ± 0.022 kPa
379.62 K
  vapor or sublimation pressure: 1.318 ± 0.02 kPa
379.86 K
  vapor or sublimation pressure: 1.338 ± 0.02 kPa
380.13 K
  vapor or sublimation pressure: 1.358 ± 0.02 kPa
393.09 K
  vapor or sublimation pressure: 2.478 ± 0.021 kPa
393.16 K
  vapor or sublimation pressure: 2.483 ± 0.021 kPa
393.19 K
  vapor or sublimation pressure: 2.483 ± 0.021 kPa
393.25 K
  vapor or sublimation pressure: 2.488 ± 0.021 kPa
402.75 K
  vapor or sublimation pressure: 3.746 ± 0.021 kPa
402.76 K
  vapor or sublimation pressure: 3.746 ± 0.021 kPa
402.77 K
  vapor or sublimation pressure: 3.746 ± 0.021 kPa
410.74 K
  vapor or sublimation pressure: 5.173 ± 0.022 kPa
410.81 K
  vapor or sublimation pressure: 5.179 ± 0.022 kPa
410.83 K
  vapor or sublimation pressure: 5.184 ± 0.022 kPa
410.85 K
  vapor or sublimation pressure: 5.189 ± 0.022 kPa
428.47 K
  vapor or sublimation pressure: 10.05 ± 0.023 kPa
428.48 K
  vapor or sublimation pressure: 10.05 ± 0.023 kPa
439.99 K
  vapor or sublimation pressure: 14.94 ± 0.025 kPa
440 K
  vapor or sublimation pressure: 14.94 ± 0.025 kPa
449.13 K
  vapor or sublimation pressure: 20.06 ± 0.027 kPa and 20.07 ± 0.027 kPa
449.14 K
  vapor or sublimation pressure: 20.06 ± 0.027 kPa
449.15 K
  vapor or sublimation pressure: 20.07 ± 0.027 kPa
449.2 K
  vapor or sublimation pressure: 20.09 ± 0.027 kPa
449.21 K
  vapor or sublimation pressure: 20.09 ± 0.027 kPa
449.22 K
  vapor or sublimation pressure: 20.1 ± 0.027 kPa
456.12 K
  vapor or sublimation pressure: 24.89 ± 0.03 kPa
456.13 K
  vapor or sublimation pressure: 24.89 ± 0.03 kPa
456.14 K
  vapor or sublimation pressure: 24.89 ± 0.03 kPa
462.5 K
  vapor or sublimation pressure: 30.11 ± 0.032 kPa
462.52 K
  vapor or sublimation pressure: 30.11 ± 0.032 kPa
467.98 K
  vapor or sublimation pressure: 35.24 ± 0.034 kPa
472.54 K
  vapor or sublimation pressure: 40.02 ± 0.037 kPa
478.05 K
  vapor or sublimation pressure: 46.5 ± 0.039 kPa
478.06 K
  vapor or sublimation pressure: 46.5 ± 0.039 kPa
482.73 K
  vapor or sublimation pressure: 52.54 ± 0.043 kPa and 52.65 ± 0.043 kPa and 52.66 ± 0.043 kPa
482.76 K
  vapor or sublimation pressure: 52.69 ± 0.043 kPa
482.77 K
  vapor or sublimation pressure: 52.7 ± 0.043 kPa
487.56 K
  vapor or sublimation pressure: 59.65 ± 0.046 kPa
487.57 K
  vapor or sublimation pressure: 59.67 ± 0.046 kPa
487.58 K
  vapor or sublimation pressure: 59.69 ± 0.046 kPa
491.67 K
  vapor or sublimation pressure: 66.2 ± 0.049 kPa and 66.19 ± 0.049 kPa
491.68 K
  vapor or sublimation pressure: 66.21 ± 0.049 kPa
495.5 K
  vapor or sublimation pressure: 72.78 ± 0.052 kPa
495.53 K
  vapor or sublimation pressure: 72.83 ± 0.052 kPa
498.98 K
  vapor or sublimation pressure: 79.21 ± 0.055 kPa
498.99 K
  vapor or sublimation pressure: 79.22 ± 0.055 kPa
503.36 K
  vapor or sublimation pressure: 87.92 ± 0.058 kPa and 87.93 ± 0.058 kPa
505.71 K
  vapor or sublimation pressure: 92.91 ± 0.061 kPa
505.72 K
  vapor or sublimation pressure: 92.91 ± 0.061 kPa
508.06 K
  vapor or sublimation pressure: 98.13 ± 0.063 kPa
508.07 K
  vapor or sublimation pressure: 98.13 ± 0.063 kPa
508.08 K
  vapor or sublimation pressure: 98.17 ± 0.063 kPa
508.09 K
  vapor or sublimation pressure: 98.18 ± 0.063 kPa
509.38 K
  vapor or sublimation pressure: 101.13 ± 0.065 kPa and 101.14 ± 0.065 kPa and 101.15 ± 0.065 kPa
509.93 K
  vapor or sublimation pressure: 102.44 ± 0.065 kPa
509.94 K
  vapor or sublimation pressure: 102.45 ± 0.065 kPa
510.55 K
  vapor or sublimation pressure: 103.88 ± 0.066 kPa
510.56 K
  vapor or sublimation pressure: 103.87 ± 0.065 kPa and 103.88 ± 0.065 kPa

## CC(c1ccccc1)C(C)(C)C (stereo unspecified) [(1,2,2-trimethylpropyl)benzene]
296 K, Transpiration method
  vapor or sublimation pressure: 0.04082 ± 0.0021 kPa
298.5 K, Transpiration method
  vapor or sublimation pressure: 0.04885 ± 0.0025 kPa
301 K, Transpiration method
  vapor or sublimation pressure: 0.05923 ± 0.003 kPa
303.5 K, Transpiration method
  vapor or sublimation pressure: 0.07018 ± 0.0036 kPa
305.9 K, Transpiration method
  vapor or sublimation pressure: 0.08326 ± 0.0042 kPa
308.4 K, Transpiration method
  vapor or sublimation pressure: 0.09874 ± 0.005 kPa
310.9 K, Transpiration method
  vapor or sublimation pressure: 0.1175 ± 0.006 kPa
313.4 K, Transpiration method
  vapor or sublimation pressure: 0.1378 ± 0.007 kPa
315.9 K, Transpiration method
  vapor or sublimation pressure: 0.1579 ± 0.008 kPa
318.3 K, Transpiration method
  vapor or sublimation pressure: 0.185 ± 0.0094 kPa
320.8 K, Transpiration method
  vapor or sublimation pressure: 0.2193 ± 0.011 kPa
323.3 K, Transpiration method
  vapor or sublimation pressure: 0.2551 ± 0.013 kPa
325.8 K, Transpiration method
  vapor or sublimation pressure: 0.292 ± 0.015 kPa
